According to US8546395B2, “6-cycloamino-3-(1H-pyrrolo[2,3-b]pyridin-4-yl)imidazo[1,2-b]pyridazine derivatives, preparation thereof and therapeutic use thereof” (Sanofi, priority 2008, dated 2013):

Tests used:
[1] = target: T1, casein kinase 1 epsilon (CK1 epsilon) (Homo sapiens, UniProt P49674); test: Filter-plate assay of ATP-33P for CK1 epsilon inhibitors (phosphorylation of casein); type: biochemical; conditions: casein substrate, ATP-33P with 10 μM cold ATP, 2 hours at ambient temperature
T1 construct: Invitrogen Corporation (as an alternative)
Method: The capacity of the compounds of the invention to inhibit the phosphorylation of casein by casein kinase 1 epsilon and delta may be evaluated according to the procedure described in US 2005/0131012.
Filter-Plate Assay of ATP-^33P for the Screening of CK1 Epsilon Inhibitors:
The effect of the compounds on inhibition of the phosphorylation of casein by the enzyme casein kinase 1 epsilon (CK1 epsilon) is measured, using a casein assay with filtration of ATP-^33P in vitro.
Casein kinase 1 epsilon (0.58 mg/ml) is obtained via fermentation and purification processes performed according to methods that are well known to those skilled in the art, or may also be obtained from Invitrogen Corporation™ (human CK1 epsilon).
The compounds are tested at five different concentrations so as to generate IC50 values, i.e. the concentration at which a compound is capable of inhibiting the enzymatic activity by 50%, or alternatively the percentage of inhibition at a concentration of 10 micromolar.
“U”-bottomed Falcon plates are prepared by placing 5 μL of solutions of the compounds according to the invention at concentrations of 10, 1, 0.1, 0.01 or 0.001 μM in various wells. The solutions of the compounds according to the invention at these various concentrations are prepared by diluting in a test buffer (50 mM Tris, pH 7.5, […], 2 mM DTT and 1 mM EGTA) a stock solution in DMSO at a concentration of 10 mM. Next, 5 μL of dephosphorylated casein are added to a final concentration of 0.2 μg/μL, 20 μl of CK1 epsilon to a final concentration of 3 ng/μl, and 20 μl of ATP-^33P to a final concentration of 0.02 μCi/μl mixed with cold ATP (10 μM final—approximately 2×10^6 CPM per well). The final total test volume per well is equal to 50 μl.
The “U”-bottomed Falcon® test plate mentioned above is vortexed, and then incubated at ambient temperature for 2 hours. After 2 hours, the reaction is stopped by adding an ice-cold solution of 65 μl of ATP (2 mM) prepared in test buffer.
100 μl of the reaction mixture are then transferred from the “U”-bottomed Falcon® plate into Millipore® MAPH filter plates, preimpregnated with 25 μl of ice-cold 100% TCA. […]
The plates are left to dry overnight at ambient temperature. […] The radiation emitted by each well is then measured for 2 minutes in a Packard® Topcount NXT scintillation counter, in which the values of CPM/well are measured.
The percentage inhibition of the capacity of the enzyme to phosphorylate the substrate (casein) is determined for each concentration of compound tested. These inhibition data expressed as percentages are used to calculate the IC50 value for each compound compared with the controls.
The kinetic studies determined the KM value for ATP as being 21 μM in this test system.

[2] = system: Mper1-luc Rat-1 (P2C4) fibroblasts; test: Circadian cell assay (mPer1-luciferase reporter, period prolongation); type: cell-based; conditions: effective concentration that induced a 1-hour prolongation of the circadian period, interpolated from hyperbolic curve
Method: Experimental Protocols for Circadian Cell Assay
Mper1-luc Rat-1 (P2C4) fibroblast cultures were prepared by dividing the cultures every 3-4 days (approximately 10-20% of confluence) on 150 cm^2 degassed polystyrene tissue culture flasks (Falcon® #35-5001) and maintained in growth medium [EMEM (Celigro #10-010-CV); 10% foetal bovine serum (FBS; Gibco #16000-044); and 50 I.U./ml of penicillin-streptomycin (Celigro #30-001-CI)] at 37° C. and under 5% CO2.
Cells obtained from Rat-1 fibroblast cultures at 30-50% of confluence as described above were co-transfected with vectors containing the selection marker for resistance to zeocin for a stable transfection and a luciferase reporter gene controlled by the mPer-1 promoter. After 24 to 48 hours, the cultures were divided on 96-well plates and maintained in growth medium supplemented with 50-100 μg/ml of zeocin (Invitrogen® #45-0430) for 10-14 days. The zeocin-resistant stable transfectants were evaluated for the expression of the reporter by adding 100 μM luciferin (Promega® #E1603®) to the growth medium and by assaying the luciferase activity on a TopCount scintillation counter (Packard Model #C384V00). The Rat-1 cell clones expressing both zeocin resistance and lucerifase activity controlled by mPer1 were serum-shock synchronized with 50% horse serum [HS (Gibco® #16050-122)] and the activity of the circadian reporter was evaluated. The P2C4 clone of Mper1-luc Rat-1 fibroblasts was selected to test the compound. Mper1-luc Rat-1 ([…]) fibroblasts at 40-50% of confluence, obtained according to the protocol described above, were plated out onto 96-well opaque tissue culture plates (Perkin Elmer® #6005680). […]
The period analysis was performed either by determining the interval between the relative light emission minima over several days or by Fourier transform. […] The data were analysed by adjusting a hyperbolic curve to the data expressed as change of period (y-axis) as a function of the concentration of the test compound (x-axis) in the XLfit™ software and the CE Delta (t+1 h) was interpolated from this curve.

human CK1 delta = target: T2, human CK1 delta (Homo sapiens, UniProt P48730); test: FRET fluorescence test (Z'Lyte kinase assay Kit), peptide substrate SER/THR 11; type: biochemical; conditions: peptide substrate 2 μM, ATP at 4 times the KM
T2 construct: purchased Invitrogen Corporation PV3665
From the text: The capacity of the compounds of the invention to inhibit the phosphorylation of casein by casein kinase 1 epsilon and delta may be evaluated using a FRET (“Fluorescence Resonance Energy Transfer) fluorescence test with the aid of the “Z'Lyte™ kinase assay Kit” (reference PV3670; Invitrogen Corporation™) according to the manufacturer's instructions.
The casein kinases 1 used are obtained from Invitrogen Corporation (human CK1 epsilon PV3500 and human CK1 delta PV3665).
A peptide substrate, labelled at both ends with a fluorophor donor group (coumarin) and a fluorophor acceptor group (fluorescein) constituting a FRET system is phosphorylated in the presence of ATP by casein kinase 1 epsilon or delta in the presence of increasing concentrations of compounds of the invention.
The mixture is treated with a site-specific protease that specifically cleaves the peptide substrate to form two fluorescent fragments having a large fluorescence emission ratio.
The fluorescence observed is thus related to the capacity of the products of the invention to inhibit the phosphorylation of the peptide substrate by casein kinase 1 epsilon or casein kinase 1 delta.
The compounds of the invention are dissolved at different concentrations starting with a 10 mM stock solution in DMSO diluted in a buffer containing 50 mM HEPS, pH 7.5, 1 m MEGTA, 0.01% Brij-35, 10 mM MgCl2 for casein kinase 1 epsilon and supplemented with Trizma Base (50 mM), pH 8.0, and NaN3 (0.01% final) for casein kinase 1 delta.
The phosphorylation of the peptide substrate SER/THR 11 obtained from Invitrogen Corporation™ is performed at a final concentration of 2 μM. The ATP concentration is 4 times the KM, this value being 2 μM for casein kinase 1 epsilon and 4 μM for casein kinase 1 delta.
The emitted fluorescence is measured at wavelengths of 445 and 520 nm (excitation at 400 nm).

T1 sequence (P49674 whole entry): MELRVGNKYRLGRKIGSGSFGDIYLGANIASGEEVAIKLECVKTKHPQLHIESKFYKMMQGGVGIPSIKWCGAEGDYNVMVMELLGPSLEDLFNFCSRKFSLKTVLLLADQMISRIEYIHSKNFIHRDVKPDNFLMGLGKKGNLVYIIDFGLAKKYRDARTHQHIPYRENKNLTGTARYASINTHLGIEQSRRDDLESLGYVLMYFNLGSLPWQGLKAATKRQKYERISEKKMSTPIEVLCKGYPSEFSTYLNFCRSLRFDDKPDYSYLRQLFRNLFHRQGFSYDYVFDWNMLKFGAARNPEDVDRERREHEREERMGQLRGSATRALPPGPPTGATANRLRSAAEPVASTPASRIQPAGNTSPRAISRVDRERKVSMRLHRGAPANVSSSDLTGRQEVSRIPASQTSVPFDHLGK
T2 sequence (P48730 whole entry): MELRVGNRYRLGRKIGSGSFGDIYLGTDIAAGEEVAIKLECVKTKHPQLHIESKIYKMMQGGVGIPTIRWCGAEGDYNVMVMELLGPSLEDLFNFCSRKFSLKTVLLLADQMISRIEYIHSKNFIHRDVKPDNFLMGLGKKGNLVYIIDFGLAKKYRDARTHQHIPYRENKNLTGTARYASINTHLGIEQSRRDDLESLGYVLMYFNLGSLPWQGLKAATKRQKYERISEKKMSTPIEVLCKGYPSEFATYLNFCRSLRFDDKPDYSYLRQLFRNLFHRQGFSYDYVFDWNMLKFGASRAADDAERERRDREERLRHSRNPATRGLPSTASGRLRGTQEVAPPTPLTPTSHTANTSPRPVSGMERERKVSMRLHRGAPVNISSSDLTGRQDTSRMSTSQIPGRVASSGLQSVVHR

In the case of `Fc1ccc(-c2nc3ccc(N4CCC5(CCCNC5)CC4)nn3c2-c2ccnc3[nH]ccc23)cc1` [Compound 35, 9-[2-(4-Fluorophenyl)-3-(1H-pyrrolo[2,3-b]pyridin-4-yl)imidazo[1,2-b]pyridazin-6-yl]-2,9-diazaspiro[5.5]undecane], the IC50 [1] is reported as 6 nM and the “CE Delta (t + 1 h)” value [2] is reported as 305 nM.

For `Cc1cc(N2C[C@H]3CN(C)C[C@H]3C2)nn2c(-c3ccnc4[nH]ccc34)c(-c3ccc(F)cc3)nc12` [Compound 29, (Cis)-2-(4-fluorophenyl)-8-methyl-6-(5-methyl-hexahydropyrrolo[3,4-c]pyrrol-2(1H)-yl)-3-(1H-pyrrolo[2,3-b]pyridin-4-yl)imidazo[1,2-b]pyridazine], the IC50 (human CK1 delta) was 5 nM.

In the case of `CC(C)(O)CN1CCN(c2ccc3nc(-c4ccc(F)cc4)c(-c4ccnc5[nH]ccc45)n3n2)CC1` [Compound 20, 1-{4-[2-(4-Fluorophenyl)-3-(1H-pyrrolo[2,3-b]pyridin-4-yl)imidazo[1,2-b]pyridazin-6-yl]piperazin-1-yl}-2-methylpropan-2-ol], the IC50 (human CK1 delta) is reported as 30 to 42 nM and the melting point is reported as 273 to 276 °C.

In the case of `C[C@@H]1CN(c2ccc3nc(-c4ccc(F)cc4)c(-c4ccnc5[nH]ccc45)n3n2)CCN1` [Compound 6, 2-(4-Fluorophenyl)-6-[(3R)-3-methylpiperazin-1-yl]-3-(1H-pyrrolo[2,3-b]pyridin-4-yl)imidazo[1,2-b]pyridazine], the IC50 [1] is reported as 1 to 2 nM, the “CE Delta (t + 1 h)” value [2] is reported as 2 to 3 nM and the melting point is reported as 285 to 287 °C.
